Experimental data: US20240252418A1, “Additives (Adjuvants, Anti Freezing Agents, Antimicrobial and Antioxidants) in Natural Deep Eutectic Solvents and Mixtures” (Bioeutectics Corporation, priority 2023, published 2024)

Experiments:
[1] = Solubility test for common agro actives; conditions: 14% w/w analyte/solvent, 30° C., vortex and ultrasound
Experimental: Solubility test (for common agro actives) was carried out at the working concentration of 14% w/w analyte/solvent, initially in traditional solvents and then in our selected solvents, at 30° C. and assisted by vortex and ultrasound.

[2] = Wetted area of droplets on a paper sheet (pure systems); format: physicochemical; conditions: 5 μL drop
Experimental: (§1) A general procedure was developed to evaluate the wetted area of droplets. The test system was prepared with 1% of the eutectic products in water, and a miscible dye, which allowed the visualization of the wetted area droplets. To compare the ability of the pure systems to a known adjuvant, TX (Triton X-100), a nonionic surfactant that has a hydrophilic polyethylene oxide chain with, on average, 9.5 ethylene oxide units) was used and was prepared under the same conditions and compared with a water/dye blank.

[3] = system: waxy leaves of Epipremnum aureum; assay: Wetted area of droplets on waxy leaves; format: physicochemical
Experimental: as §1
In a subsequent experiment, the wetted area of droplets was tested on waxy leaves of Epipremnum aureum. The quantitative results of those tests appear in Table 2.

[4] = Wetted area on a paper sheet (mixture systems with TX); format: physicochemical
Experimental: as §1
With the results from the pure systems on paper and a waxy leaf shown in tables 1 and 2, a subsequent test was performed wherein mixtures of the products of the present invention with TX were compared on a paper sheet. Mixtures comprising TX and the products under study were evaluated at 0.9, 0.75, 0.50, 0.25, and 0.10% (1% total concentration). […] Compared to TX/water, the mixture with TX/BOA (50/50%) increased the wetted area by around 190%, systems with TX/BOA and TX/BOA (75/25%) increased the wetted area by around 180%, while TX/BOA (25/75%) increased the wetted area by around 150% (see Table 3).

[5] = Evaporation time measurements; format: physicochemical; conditions: 5 μL drop of 1% solution in H2O, glass slide, room temperature
Experimental: Evaporation time was analyzed after applying 5 μL (one drop) of a 1% solution in water, on a glass slide at room temperature.

[6] = Component A TX 0.1% + Component B 0.9%
[7] = Component A TX 0.25% + Component B 0.75%
[8] = Component A TX 0.5% + Component B 0.5%
[9] = Component A TX 0.75% + Component B 0.25%
[10] = Component A TX 0.9% + Component B 0.1%

Row | Relative size (%) with reference to H2O ([2]; 1% in water) [%] | Relative size (%) with reference to TX ([2]; 1% in water) [%] | Area ([2]; 1% in water with dye) [mm^2] | Relative size (%) with reference to H2O [3] [%] | Relative size (%) with reference to TX [3] [%] | Area [4, 6] [mm^2] | Relative size (%) with reference to TX/H2O [4, 6] [%] | Area [4, 7] [mm^2] | Relative size (%) with reference to TX/H2O [4, 7] [%] | Area [4, 8] [mm^2] | Relative size (%) with reference to TX/H2O [4, 8] [%] | Area [4, 9] [mm^2] | Relative size (%) with reference to TX/H2O [4, 9] [%] | Area [4, 10] [mm^2] | Relative size (%) with reference to TX/H2O [4, 10] [%] | Evaporation time [5] [min] | The relative evaporation time with reference to TX (min) [5] | Compound | Solubility in the selected solvents [1]
1 | – | – | – | – | – | – | – | – | – | – | – | – | – | – | – | – | – | CCNc1nc(Cl)nc(NC(C)(C)C)n1 [Terbutylazine] | Soluble in 9 of our tested solvents
2 | 424.82 | 100.00 | 23.98 | 333.18 | 100.00 | 18.05 | 100.00 | 18.99 | 100.00 | 17.78 | 100.00 | 17.84 | 100.00 | 15.81 | 100.00 | 19.73 | 1.00 | Triton X-100 [TX] | –
